Experimental data published in US20100221241A1, “C[…] ENVELOPE-BASED IMMUNOGEN THAT SIMU[…] RECEPTOR AND […] SITES” (UNIVERSITY OF MARYLAND BIOTECHNOLOGY INSTITUTE, priority 2005, published 2010).
No end group written: not given here.

Tests used:
[1] = tested on: HIV; details: compared with monomeric CD4M9; used with surface HIV virion; cited from earlier work
[2] = tested on: trimers (soluble gp120 trimer); experiment: Surface Plasmon Resonance binding to trimers; set-up: species or system HIV; details: compared with monomeric CD4M9
Text: Recently, the X-ray crystal structure of free gp120 was solved (1) and along with X-ray tomography images of envelope spikes (3), used to build a computational model of the envelope trimer (1). […] The line between the binding sites is a “ruler” divided into 1 nm units, which was used to estimate distances between binding sites.

## bi-CD4M9-MS: bivalent polypeptide containing two CD4M9 moieties separated by polyethylene glycol linker placing the binding residues 5.2 nm apart (CNLATCQLTCKSLGLLGKCAGSFCACGP; cysteine pairing not given here; also: bivalent: two CD4M9 moieties joined by a polyethylene glycol linker)
[1]
  HIV inhibition: more potent HIV inhibition than monomeric CD4M9
[2]
  forward rate constant for binding: significantly different from monomeric CD4M9
